# Results published in ChEMBL document CHEMBL1201862, “PubChem BioAssay data set” (2004).
#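 Five concentrations, 48 hours, 96-well plates. At the GI50, growth is halved.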 Active and inactive are the calls of the source. Cut-off read from the data, not from the text of the source: active = GI50 up to about 1.1 µM and inactive = higher.
# Tests used:
# Test in all cases: NCI tumour cell line growth inhibition, 48 h
# [1] = test system: MDA-N
# [2] = test system: U-251
# [3] = test system: A549
# [4] = test system: IGROV-1
# [5] = test system: LOX IMVI
# [6] = test system: OVCAR-3
# [7] = test system: UACC-62
# [8] = test system: TK-10
# [9] = test system: A498
# [10] = test system: COLO 205
# [11] = test system: NCI/ADR-RES
# [12] = test system: SN12C
# [13] = test system: HT-29
# [14] = test system: CCRF-CEM
# [15] = test system: PC-3
# [16] = test system: EKVX
# [17] = test system: KM12
# [18] = test system: SK-MEL-5
# [19] = test system: SNB-75
# [20] = test system: RXF 393
Structure (SMILES),GI50 [1],GI50 [2],GI50 [3],GI50 [4],GI50 [5],GI50 [6],GI50 [7],GI50 [8],GI50 [9],GI50 [10],GI50 [11],GI50 [12],GI50 [13],GI50 [14],GI50 [15],GI50 [16],GI50 [17],GI50 [18],GI50 [19],GI50 [20]
CSc1nc(NC(C)C)c2c(n1)Sc1nc3ccccc3n1N=C2,27 µM (inactive),11.5 µM (inactive),5.33 µM (inactive),16.9 µM (inactive),10.7 µM (inactive),10.4 µM (inactive),6.62 µM (inactive),13.8 µM (inactive),3.09 µM (inactive),7.69 µM (inactive),6.92 µM (inactive),10.7 µM (inactive),21 µM (inactive),6.58 µM (inactive),19.5 µM (inactive),21.1 µM (inactive),16.5 µM (inactive),0.69 µM (active),,
CCOC(=O)/C(=C\c1ccc(N(C)C)cc1)S(=O)(=O)C(F)(F)C(F)(F)C(F)(F)C(F)(F)F,> 100 µM (inactive),> 100 µM (inactive),> 100 µM (inactive),> 100 µM (inactive),> 100 µM (inactive),> 100 µM (inactive),> 100 µM (inactive),13 µM (inactive),> 100 µM (inactive),> 100 µM (inactive),> 100 µM (inactive),> 100 µM (inactive),> 100 µM (inactive),> 100 µM (inactive),> 100 µM (inactive),> 100 µM (inactive),> 100 µM (inactive),> 100 µM (inactive),> 100 µM (inactive),
CC(=O)O[C@H]1CC[C@H]2[C@@H]3CCc4cc(O)c(I)cc4[C@H]3CC[C@]12C,15.9 µM (inactive),14.7 µM (inactive),15.3 µM (inactive),16.9 µM (inactive),15.1 µM (inactive),16.6 µM (inactive),,19.3 µM (inactive),,18.1 µM (inactive),17.6 µM (inactive),,17.7 µM (inactive),> 10 µM (inactive),6.12 µM (inactive),13.1 µM (inactive),12 µM (inactive),3.83 µM (inactive),13.4 µM (inactive),
O=C(CCC(NC(=O)OCc1ccccc1)C(=O)OCc1ccccc1)Nc1ccc(OCc2ccccc2)cc1 (configuration not stated),,17.1 µM (inactive),19.3 µM (inactive),> 31.6 µM (inactive),> 31.6 µM (inactive),> 84.1 µM (inactive),> 31.6 µM (inactive),> 31.6 µM (inactive),> 10 µM (inactive),25.8 µM (inactive),17.5 µM (inactive),> 31.6 µM (inactive),26.6 µM (inactive),21.8 µM (inactive),13.2 µM (inactive),> 31.6 µM (inactive),> 31.6 µM (inactive),> 10 µM (inactive),> 31.6 µM (inactive),28.3 µM (inactive)
CCOP(=O)(C[S+](C)[O-])O[C@@H]1C[C@H](C)CC[C@H]1C(C)C (some centres not stated),2.86 µM (inactive),4.59 µM (inactive),4.85 µM (inactive),3.25 µM (inactive),1.77 µM (inactive),4.44 µM (inactive),2.17 µM (inactive),3.63 µM (inactive),,6.19 µM (inactive),7.29 µM (inactive),0.434 µM (active),,2.43 µM (inactive),6.61 µM (inactive),3.33 µM (inactive),3.14 µM (inactive),2.25 µM (inactive),7.28 µM (inactive),2.59 µM (inactive)
CC1=C(Cl)C[C@@H](/C(C)=C\Cl)O[C@@]1(O)C(Br)Br,19.2 µM (inactive),32.8 µM (inactive),22 µM (inactive),34.3 µM (inactive),31.7 µM (inactive),17.5 µM (inactive),45.2 µM (inactive),29 µM (inactive),31.1 µM (inactive),29.5 µM (inactive),,19.5 µM (inactive),32.1 µM (inactive),6.27 µM (inactive),60.5 µM (inactive),26.5 µM (inactive),54.1 µM (inactive),24.9 µM (inactive),55.6 µM (inactive),19.2 µM (inactive)
CC(=O)Nc1ccc(C(=O)NN2C(=O)CSC2c2ccccc2)cc1 (configuration not stated),> 100 µM (inactive),> 100 µM (inactive),> 100 µM (inactive),> 100 µM (inactive),,> 100 µM (inactive),> 100 µM (inactive),> 100 µM (inactive),> 100 µM (inactive),> 100 µM (inactive),> 100 µM (inactive),> 100 µM (inactive),> 100 µM (inactive),> 100 µM (inactive),,> 100 µM (inactive),> 100 µM (inactive),> 100 µM (inactive),90.8 µM (inactive),> 100 µM (inactive)
